According to BindingDB's records for doi:10.1016/j.bmcl.2013.11.055 (Shanghai Hengrui Pharmaceutical, 2013):

Assays:
[1] = Antagonist activity at P2Y12 receptor in rat platelet-rich plasma assessed as inhibition of ADP-induced platelet aggregation incubated for 5 mins prior to ADP-challenge by light transmission-based assay
[2] = Antagonist activity at P2Y12 receptor in human platelet-rich plasma assessed as inhibition of ADP-induced platelet aggregation incubated for 5 mins prior to ADP-challenge by light transmission-based assay

Row | IC50 [1] [nM] | IC50 [2] [nM] | SMILES
1 | 290 | 220 | CCCSc1nc(N[C@@H]2C[C@H]2c2ccc(F)c(F)c2)c2nnn([C@H]3[C@H](O)[C@H](O)[C@@H](O)[C@H]3F)c2n1
2 | 31300 | – | CCCSc1nc(N[C@@H]2C[C@H]2c2ccc(F)c(F)c2)c2nnn([C@@H]3C[C@H](OCC(F)F)[C@@H](O)[C@H]3O)c2n1
3 | 410 | 4820 | CCCSc1nc(N[C@@H]2C[C@H]2c2ccc(F)c(F)c2)c2nnn([C@@H]3C[C@H](OCC(F)CO)[C@@H](O)[C@H]3O)c2n1 (stereo not given in full)
4 | 148 | – | CCCSc1nc(N[C@@H]2C[C@H]2c2ccc(F)c(F)c2)c2nnn([C@@H]3C[C@H](OCC(O)CO)[C@@H](O)[C@H]3O)c2n1 (stereo not given in full)
5 | 110 | 330 | CCCSc1nc(N[C@@H]2C[C@H]2c2ccc(F)c(F)c2)c2nnn([C@@H]3C[C@H](F)[C@@H](O)[C@H]3O)c2n1
6 | 850 | 1970 | CCCSc1nc(N[C@@H]2C[C@H]2c2ccc(F)c(F)c2)c2nnn([C@@H]3C=C[C@@H](O)[C@H]3O)c2n1
7 | 480 | 350 | CCCSc1nc(N[C@@H]2C[C@H]2c2ccc(F)c(F)c2)c2nnn([C@H]3[C@H](O)[C@H](O)[C@@H](OCCO)[C@H]3F)c2n1
8 | 1250 | 1730 | CCCSc1nc(N[C@@H]2C[C@H]2c2ccc(F)c(F)c2)c2nnn(C3[C@H](O)[C@H](O)[C@@H](O)[C@H]3O)c2n1 (stereo not given in full)
9 | 1380 | 11300 | CCCSc1nc(N[C@@H]2C[C@H]2c2ccc(F)c(F)c2)c2nnn([C@H]3[C@H](O)[C@H](O)[C@@H](OCCO)[C@@H]3O)c2n1
10 | 650 | 16300 | CCCSc1nc(N[C@@H]2C[C@H]2c2ccc(F)c(F)c2)c2nnn([C@H]3[C@H](O)[C@H](O)[C@@H](O)[C@@H]3O)c2n1
11 | 1520 | – | CCCSc1nc(N[C@@H]2C[C@H]2c2cccnc2)c2nnn([C@@H]3C[C@H](OCCO)[C@@H](O)[C@H]3O)c2n1
12 | 1810 | – | CCCSc1nc(N[C@@H]2C[C@H]2c2scnc2C)c2nnn([C@@H]3C[C@H](OCCO)[C@@H](O)[C@H]3O)c2n1
13 | 160 | 280 | CCCSc1nc(N[C@@H]2C[C@H]2c2ccc(Cl)s2)c2nnn([C@@H]3C[C@H](OCCO)[C@@H](O)[C@H]3O)c2n1
14 | – | 6350 | CCCSc1nc(N[C@@H]2C[C@H]2c2ccc(F)c(F)c2)c2nnn([C@H]3[C@H](O)[C@H](O)[C@@H](OCCO)[C@@H]3F)c2n1
15 | – | 1670 | CCCSc1nc(N[C@@H]2C[C@H]2c2ccc(F)c(F)c2)c2nnn([C@H]3[C@H](O)[C@H](O)[C@@H](O)[C@@H]3F)c2n1
16 | – | 500 | CCCSc1nc(N[C@@H]2C[C@H]2c2ccc(F)c(F)c2)c2nnn([C@@H]3C[C@H](OCCO)[C@@H](O)[C@H]3O)c2n1 [AR-C126532XX]
